Measured values as given in patent US11834663B2, “Fibrotic treatment” (Monash University, priority 2015, dated 2023).

Columns and labels:
Ang II-infused WT mice = experiment: Angiotensin II infusion prevention model: systolic blood pressure (tail-cuff); format: in vivo, mouse; conditions: adult WT mice, Ang II 800 ng/kg/min s.c. + HFI-419 500 ng/kg/min, 4 weeks; FIG. 1
Method: (§1) There are 8 different sets of in vivo experiments in this study: • A) Phenotypic characterisation of the heart and blood vessels in global IRAP knockout mice and their WT controls treated for 4 weeks with Angiotensin (Ang) II (800 ng/kg/min; s.c.) where mouse hearts and blood vessels were compared to tissue obtained from young WT and IRAP^−/− mice treated with saline. • B) Prevention of Ang II-induced changes in the cardiovascular system following IRAP inhibitor treatment. […]
All mice which underwent surgery were anaesthetized with Isoflurane (Isorrane) (5% induction and 2.5% maintenance) and an incision made in the midscapular region through which osmotic minipumps (Alzet model 2004, Alza Corp) were inserted for subcutaneous drug administration. […] Systolic blood pressure (SBP) was measured fortnightly using non-invasive tail-cuff plethysmography apparatus (MC4000 Blood Pressure Analysis System, Hatteras Instrument Inc) before drug treatment (week 0), at week 2 of treatment and end of treatment (week 4). At the end of drug treatment, body weight of mice was recorded. […]

[1] = test system: kidneys of aged (18-22 month old) WT mice; experiment: Reversal of age-induced kidney fibrosis in aged WT mice; format: in vivo, mouse
Method: as §1, with “treatment. In the prevention model, WT mice were treated with Ang II (800 ng/kg/min; s.c.)±the IRAP inhibitor (HFI-419; 500 ng/kg/min for 28 days) or HFI-vehicle (1 DMSO:3 HBC). • C) Phenotypic characterisation of the aged heart, kidney and blood vessels in the global IRAP knockout mice where aged WT and IRAP^−/− mouse hearts, kidneys and blood vessels were compared to tissue obtained from young WT and IRAP^−/− mice. • D) Reversal of the age-induced changes in the cardiovascular system following IRAP inhibitor treatment.” for “treatment.”
To measure collagen deposition, frozen sections of heart, kidney or aorta (all 5 μm thickness) were air dried for 10 minutes and were brought through 3 times xylene (2 minutes each), and 3 times absolute alcohol washes before being rinsed in tap H2O for 30 seconds. […] Images were taken under ×20 magnification, using bright field (Olympus, BX51) and circularized polarized light microscopy (DM IRB, Leica) while percentage of positive interstitial collagen staining per total field of view was quantified using ImageJ 1.46 software (Java, NIH), and averaged out from a total of eight views as the final percentage collagen content in a particular animal. […]

CCOC(=O)C1=C(NC(C)=O)Oc2cc(O)ccc2C1c1cccnc1 (stereo not shown) [HFI-419]
Ang II-induced increase in systolic blood pressure (Ang II-infused WT mice): attenuates | IRAP expression in kidneys ([1]; aged WT mice, HFI-419 500 ng/kg/min s.c., 4 weeks, FIG. 22b): tended to be decreased | αSMA-positive myofibroblast expression in kidneys ([1]; aged WT mice, HFI-419 4 weeks vs vehicle, FIG. 24b): trend towards reduced | age-induced collagen deposition in kidney (interstitial fibrosis, picrosirius red) ([1]; ~20 month old WT mice, HFI-419 500 ng/kg/min s.c., 4 weeks, FIG. 23): completely reverse
